Data published in patent US10322111B2, “Chemokine receptor binding heterocyclic compounds with enhanced efficacy” (Genzyme Corporation, priority 2001, dated 2019).
Where two headings read alike, the source gives them in different places.

Columns and labels:
[1] = tested on: CD34 positive progenitor cells
[2] = tested on: unseparated and low density nucleated cells; conditions: 80 μg/kg s.c.; for % CHG, nucleated cellularity PBL-LD / % CHG, nucleated cellularity PBL-US / Fold Change Compared to TIME = 0, nucleated cellularity PBL-LD, MEAN / Fold Change Compared to TIME = 0, nucleated cellularity PBL-US, MEAN: average of 5 donors
progenitor cells = conditions: mice, AMD3100 5 mg/Kg s.c. + MIP-1α 5 μg I.V., 11 hours after rhu G-CSF or saline, blood 1 hour later
Procedure: One hour later, the mice were sacrificed and the number of progenitor cells per mL of blood were measured.

Structure (SMILES): c1cc(CN2CCCNCCNCCCNCC2)ccc1CN1CCCNCCNCCCNCC1 [AMD3100, 1,1′-[1,4-phenylene-bis(methylene)]-bis-1,4,8,11-tetraazacyclotetradecane]
- CD34 positive cells ([1]; volunteer P5, 1 Hr after 80 μg/kg s.c.): .12 percentage of the total WBC's
- CD34 positive cells ([1]; volunteer P5, 3 Hr after 80 μg/kg s.c.): .13 percentage of the total WBC's
- CD34 positive cells ([1]; volunteer P5, 6 Hr after 80 μg/kg s.c.): .2 percentage of the total WBC's
- CD34 positive cells ([1]; volunteer P5, 9 Hr after 80 μg/kg s.c.): .2 percentage of the total WBC's
- CD34 positive cells ([1]; volunteer P5, Day 2 after 80 μg/kg s.c.): .16 percentage of the total WBC's
- FOLD CHANGE COMPARED TO TIME = 0, nucleated cellularity PBL-LD ([2]; P1, T = 1 h after injection): 2.07 fold
- FOLD CHANGE COMPARED TO TIME = 0, nucleated cellularity PBL-US ([2]; P1, T = 1 h after injection): 2.54 fold
- FOLD CHANGE COMPARED TO TIME = 0, nucleated cellularity PBL-LD ([2]; P1, T = 3 h after injection): 2.83 fold
- FOLD CHANGE COMPARED TO TIME = 0, nucleated cellularity PBL-US ([2]; P1, T = 3 h after injection): 3.55 fold
- FOLD CHANGE COMPARED TO TIME = 0, nucleated cellularity PBL-LD ([2]; P1, T = 6 h after injection): 4.07 fold
- FOLD CHANGE COMPARED TO TIME = 0, nucleated cellularity PBL-US ([2]; P1, T = 6 h after injection): 3.97 fold
- FOLD CHANGE COMPARED TO TIME = 0, nucleated cellularity PBL-LD ([2]; P1, T = 9 h after injection): 3.65 fold
- FOLD CHANGE COMPARED TO TIME = 0, nucleated cellularity PBL-US ([2]; P1, T = 9 h after injection): 3.27 fold
- FOLD CHANGE COMPARED TO TIME = 0, nucleated cellularity PBL-LD ([2]; P1, T = 24 h after injection): 1.01 fold
- FOLD CHANGE COMPARED TO TIME = 0, nucleated cellularity PBL-US ([2]; P1, T = 24 h after injection): 1.21 fold
- FOLD CHANGE COMPARED TO TIME = 0, nucleated cellularity PBL-LD ([2]; P2, T = 1 h after injection): 1.99 fold
- FOLD CHANGE COMPARED TO TIME = 0, nucleated cellularity PBL-US ([2]; P2, T = 1 h after injection): 1.38 fold
- FOLD CHANGE COMPARED TO TIME = 0, nucleated cellularity PBL-LD ([2]; P2, T = 3 h after injection): 3.25 fold
- FOLD CHANGE COMPARED TO TIME = 0, nucleated cellularity PBL-US ([2]; P2, T = 3 h after injection): 2.74 fold
- FOLD CHANGE COMPARED TO TIME = 0, nucleated cellularity PBL-LD ([2]; P2, T = 6 h after injection): 3.90 fold
- FOLD CHANGE COMPARED TO TIME = 0, nucleated cellularity PBL-US ([2]; P2, T = 6 h after injection): 2.94 fold
- FOLD CHANGE COMPARED TO TIME = 0, nucleated cellularity PBL-LD ([2]; P2, T = 9 h after injection): 4.43 fold
- FOLD CHANGE COMPARED TO TIME = 0, nucleated cellularity PBL-US ([2]; P2, T = 9 h after injection): 3.30 fold
- FOLD CHANGE COMPARED TO TIME = 0, nucleated cellularity PBL-LD ([2]; P2, T = 24 h after injection): 1.71 fold
- FOLD CHANGE COMPARED TO TIME = 0, nucleated cellularity PBL-US ([2]; P2, T = 24 h after injection): 1.43 fold
- FOLD CHANGE COMPARED TO TIME = 0, nucleated cellularity PBL-LD ([2]; P3, T = 1 h after injection): 1.48 fold
- FOLD CHANGE COMPARED TO TIME = 0, nucleated cellularity PBL-US ([2]; P3, T = 1 h after injection): 1.38 fold
- FOLD CHANGE COMPARED TO TIME = 0, nucleated cellularity PBL-LD ([2]; P3, T = 3 h after injection): 2.17 fold
- FOLD CHANGE COMPARED TO TIME = 0, nucleated cellularity PBL-US ([2]; P3, T = 3 h after injection): 2.02 fold
- FOLD CHANGE COMPARED TO TIME = 0, nucleated cellularity PBL-LD ([2]; P3, T = 6 h after injection): 2.27 fold
- FOLD CHANGE COMPARED TO TIME = 0, nucleated cellularity PBL-US ([2]; P3, T = 6 h after injection): 2.74 fold
- FOLD CHANGE COMPARED TO TIME = 0, nucleated cellularity PBL-LD ([2]; P3, T = 9 h after injection): 2.47 fold
- FOLD CHANGE COMPARED TO TIME = 0, nucleated cellularity PBL-US ([2]; P3, T = 9 h after injection): 2.69 fold
- FOLD CHANGE COMPARED TO TIME = 0, nucleated cellularity PBL-LD ([2]; P3, T = 24 h after injection): 0.79 fold
- FOLD CHANGE COMPARED TO TIME = 0, nucleated cellularity PBL-US ([2]; P3, T = 24 h after injection): 0.96 fold
- FOLD CHANGE COMPARED TO TIME = 0, nucleated cellularity PBL-LD ([2]; P4, T = 1 h after injection): 1.66 fold
- FOLD CHANGE COMPARED TO TIME = 0, nucleated cellularity PBL-US ([2]; P4, T = 1 h after injection): 1.36 fold
- FOLD CHANGE COMPARED TO TIME = 0, nucleated cellularity PBL-LD ([2]; P4, T = 3 h after injection): 2.82 fold
- FOLD CHANGE COMPARED TO TIME = 0, nucleated cellularity PBL-US ([2]; P4, T = 3 h after injection): 2.46 fold
- FOLD CHANGE COMPARED TO TIME = 0, nucleated cellularity PBL-LD ([2]; P4, T = 6 h after injection): 2.78 fold
- FOLD CHANGE COMPARED TO TIME = 0, nucleated cellularity PBL-US ([2]; P4, T = 6 h after injection): 2.60 fold
- FOLD CHANGE COMPARED TO TIME = 0, nucleated cellularity PBL-LD ([2]; P4, T = 9 h after injection): 2.48 fold
- FOLD CHANGE COMPARED TO TIME = 0, nucleated cellularity PBL-US ([2]; P4, T = 9 h after injection): 2.24 fold
- FOLD CHANGE COMPARED TO TIME = 0, nucleated cellularity PBL-LD ([2]; P4, T = 24 h after injection): 0.60 fold
- FOLD CHANGE COMPARED TO TIME = 0, nucleated cellularity PBL-US ([2]; P4, T = 24 h after injection): 0.77 fold
- FOLD CHANGE COMPARED TO TIME = 0, nucleated cellularity PBL-LD ([2]; P5, T = 1 h after injection): 2.10 fold
- FOLD CHANGE COMPARED TO TIME = 0, nucleated cellularity PBL-US ([2]; P5, T = 1 h after injection): 1.76 fold
- FOLD CHANGE COMPARED TO TIME = 0, nucleated cellularity PBL-LD ([2]; P5, T = 3 h after injection): 3.20 fold
- FOLD CHANGE COMPARED TO TIME = 0, nucleated cellularity PBL-US ([2]; P5, T = 3 h after injection): 3.23 fold
- FOLD CHANGE COMPARED TO TIME = 0, nucleated cellularity PBL-LD ([2]; P5, T = 6 h after injection): 5.30 fold
- FOLD CHANGE COMPARED TO TIME = 0, nucleated cellularity PBL-US ([2]; P5, T = 6 h after injection): 4.04 fold
- FOLD CHANGE COMPARED TO TIME = 0, nucleated cellularity PBL-LD ([2]; P5, T = 9 h after injection): 5.17 fold
- FOLD CHANGE COMPARED TO TIME = 0, nucleated cellularity PBL-US ([2]; P5, T = 9 h after injection): 3.96 fold
- FOLD CHANGE COMPARED TO TIME = 0, nucleated cellularity PBL-LD ([2]; P5, T = 24 h after injection): 1.12 fold
- FOLD CHANGE COMPARED TO TIME = 0, nucleated cellularity PBL-US ([2]; P5, T = 24 h after injection): 0.99 fold
- % CHG, nucleated cellularity PBL-LD ([2]; T = 1 h after injection): 86.2%
- % CHG, nucleated cellularity PBL-US ([2]; T = 1 h after injection): 68.6%
- Fold Change Compared to TIME = 0, nucleated cellularity PBL-LD, MEAN ([2]; T = 1 h after injection): 1.86 fold
- Fold Change Compared to TIME = 0, nucleated cellularity PBL-US, MEAN ([2]; T = 1 h after injection): 1.69 fold
- % CHG, nucleated cellularity PBL-LD ([2]; T = 3 h after injection): 185.6%
- % CHG, nucleated cellularity PBL-US ([2]; T = 3 h after injection): 180.2%
- Fold Change Compared to TIME = 0, nucleated cellularity PBL-LD, MEAN ([2]; T = 3 h after injection): 2.86 fold
- Fold Change Compared to TIME = 0, nucleated cellularity PBL-US, MEAN ([2]; T = 3 h after injection): 2.80 fold
- % CHG, nucleated cellularity PBL-LD ([2]; T = 6 h after injection): 266.3%
- % CHG, nucleated cellularity PBL-US ([2]; T = 6 h after injection): 225.8%
- Fold Change Compared to TIME = 0, nucleated cellularity PBL-LD, MEAN ([2]; T = 6 h after injection): 3.66 fold
- Fold Change Compared to TIME = 0, nucleated cellularity PBL-US, MEAN ([2]; T = 6 h after injection): 3.26 fold
- % CHG, nucleated cellularity PBL-LD ([2]; T = 9 h after injection): 264.3%
- % CHG, nucleated cellularity PBL-US ([2]; T = 9 h after injection): 209.4%
- Fold Change Compared to TIME = 0, nucleated cellularity PBL-LD, MEAN ([2]; T = 9 h after injection): 3.64 fold
- Fold Change Compared to TIME = 0, nucleated cellularity PBL-US, MEAN ([2]; T = 9 h after injection): 3.09 fold
- % CHG, nucleated cellularity PBL-LD ([2]; T = 24 h after injection): 4.6%
- % CHG, nucleated cellularity PBL-US ([2]; T = 24 h after injection): 7.0%
- Fold Change Compared to TIME = 0, nucleated cellularity PBL-LD, MEAN ([2]; T = 24 h after injection): 1.05 fold
- Fold Change Compared to TIME = 0, nucleated cellularity PBL-US, MEAN ([2]; T = 24 h after injection): 1.07 fold
- mobilization of progenitor cells in combination with mu MIP-1α (progenitor cells): additive to greater than additive
